Reference: publication PMC11728977, “Crystallographic, kinetic, and calorimetric investigation of PKA interactions with L-type calcium channels and Rad GTPase” (The Journal of Biological Chemistry, 2024)
No end group written: not given here.

Experiments:
[1] = molecular target: T1, PKAc:AMP-PNP (Mus musculus, UniProt P05132); experiment: Isothermal titration calorimetry of substrates binding to PKAc:AMP-PNP
T1 construct: 6xHis (N, cleaved yes); made in house; host or cells: Escherichia coli Rosetta (DE3)pLysS
Method: As an independent means to assess which substrate peptides are preferred by PKAc, we used ITC to determine the inherent affinities for the various peptides. ITC also provides the enthalpy and entropy changes upon binding and can thus help provide a rationale for different affinities. The ITC experiments were performed using excess Mg^2+ (5 mM) and 0.5 mM adenylyl-imidodiphosphate (AMP)-PNP (a nonhydrolyzable ATP analog) (Fig. 2).
ITC experiments were conducted using a MicroCal iTC200 (GE Healthcare, now Malvern) instrument. The ITC/assay buffer was used to dissolve peptides to a concentration of 1.25 to 4.3 mM. Substrate concentrations were optimized and chosen based on how much was needed to achieve sufficient signal to noise ratio. Rad Ser25 peptide contained a tryptophan residue, which allowed us to determine its concentration via 280 nm absorbance readings using an extinction coefficient of 5500 M^−1 cm^−1. For peptides lacking a tryptophan or tyrosine residue (Ser1981 WT and mutant peptides, Ser1718 peptide, Ser272 peptide, and Ser300 peptide), the amount of volume needed to achieve the desired concentration was calculated prior to diluting. Peptides were received as powder in 1 mg aliquots and using molecular weights of the peptide, the number of moles in each aliquot was determined. The number of moles was used to determine how much volume was required to achieve the desired concentration. AMP-PNP (Millipore Sigma) was dissolved in ITC/Assay buffer to a concentration of 100 mM, aliquoted in 20 μl volumes, and stored at −70 °C. Prior to each run, both titrant and titrand solutions were supplemented with AMP-PNP to a final concentration of 500 μM. The titration experiments were conducted at 4 °C with a stirring speed of 500 RPM. Each titration experiment was comprised of 20 injections with 230 s in between each injection. Each injection totalled 2.0 μl over 4 s except the first injection being 0.4 μl over 0.8 s. Background runs of peptide/substrate into ITC/assay buffer were conducted to generate a linear regression using the isotherm to subtract background heats from experimental runs. Peptides displaying large background heats were dialyzed in ITC/assay buffer for 60 min to remove contaminants remaining from peptide synthesis. The peptide into PKAc runs (experimental runs) utilized the same settings. The data was processed using Origin (Version 7.0, OriginLab) software (https://www.originlab.com/origin).

[2] = molecular target: PKAc (catalytic subunit of PKA, PKAcα 16-351) (Mus musculus, UniProt P05132); experiment: ADP-Glo kinase assay, Michaelis-Menten kinetics of PKAc phosphorylation of substrates; details: for kcat / Km / kcat/Km: ADP-Glo, 3 nM PKAc, 1 mM ATP, 5 mM Mg2+; for kcat / Km: substrate 0-256 μM, room temperature 30 min; for kcat: 50 mM Hepes pH 7.4, 150 mM KCl, mean ± SD of n = 3 or 4 biological replicates, less reliable for poor substrates; for Km: Michaelis-Menten fit; for Km / kcat/Km: mean ± SD of n = 3 or 4; for reduction in kcat/Km versus WT Ser1981 peptide: from kcat/Km of Table 2
Method: We used enzyme kinetics to investigate the activity of catalytic subunit of PKA (PKAc) toward the three target sites within the C terminus of CaV1.2. We performed discontinuous kinase assays using an ADP-GloMax Assay kit.
Kinase assays were conducted using an ADP-Glo Kinase Assay Kit (Promega). […] Therefore, we performed assays with excess ATP (1 mM) and Mg^2+ (5 mM) to saturate PKAc prior to substrate binding. Reagents were prepared as described in the kit, aliquoted, and frozen at −20 °C prior to use. Reactions were conducted in 384-well solid white polystyrene microplates (Corning). Peptide substrates and EFPreIQ were dissolved and/or diluted to 800 μM using 50 mM Hepes (pH 7.4), 150 mM KCl, 5 mM MgCl2, and 4 mM TCEP. […] For peptides lacking tryptophan, the amount of volume needed to achieve a concentration of 800 μM was calculated prior to dissolving. The peptides/substrate was 2-fold serially diluted using the same buffer to create 11 reactions per curve ranging from 0 to 256 μM. ATP was added to each reaction to achieve a final concentration of 1 mM. Reactions were initiated by the addition of thawed PKAc at a final concentration of 3 nM at a final well volume of 20 μl. After allowing reactions to occur at room temperature for 30 min, 3 × 5 ml from each reaction in a curve was taken and mixed with 5 ml ADP-Glo Reagent for a total of three technical replicates per biological replicate. After 40 min, 10 ml of kinase detection reagent was added to each technical replicate and, after waiting 60 min, relative luminescence unit were measured using a VICTOR X4 Multilabel Plate Reader (PerkinElmer).
The relative luminescence unit values were converted to specific activity values via interpolation of a standard curve that was created in accordance with the manufacturer’s protocol. The three technical replicates were averaged to calculate a biological replicate value and plotted against peptide concentration using GraphPad 9 (Prism) software (https://www.graphpad.com/updates/prism-900-release-notes). Technical replicate values resulting from experimental error were removed from the dataset and subsequent averaging. […] The Michaelis–Menten kinetics fitting function was used to generate a nonlinear regression to calculate both a Km constant and Vmax value for each biological replicate curve. These Km constant and Vmax values were averaged and SDs are reported. Figures displaying data points and Michaelis–Menten curves depict the average specific activity values calculated from all biological replicates in the three or four experiments (n = 3 or n = 4) per peptide (n = 4 for Ser1981 and Ser272 peptides, n = 3 for all others).

[3] = 4 °C, 0.5 mM AMP-PNP, 5 mM MgCl2
[4] = ITC, 4 °C, 0.5 mM AMP-PNP, 5 mM MgCl2, mean ± SD, n = 3

SRKMAFRAKSKSCHD [Rad S300 peptide] was tested, and the “binding to PKAc detected by ITC” value [1, 3] was “not” and the kcat [2] was 3.3 ± 1.4 s⁻¹.
With RGFLRSARLGRRASFHL [S1975R peptide] the ΔG [1, 4] was -5.11 ± 2.2 kcal/mol, the “−TΔS” value [1, 4] was -8.6 ± 2.2 kcal/mol and the “reduction in affinity for PKAc versus WT Ser1981 peptide” value ([1]; ITC, from KD of Table 3) was “more than 15 fold”. For the same substance, the kcat [2] was 7.5 ± 0.9 s⁻¹, the Km [2] was 6.2 ± 2.7 µM and the kcat/Km [2] was 1.2e+06 ± 500000 M⁻¹ s⁻¹. The “reduction in kcat/Km versus WT Ser1981 peptide” value [2] was 37%.
In the case of WGPAPPLHRRSMP [Rad S38 peptide], the “binding to PKAc detected by ITC” value [1, 3] is reported as “not”, the kcat [2] is reported as 2 ± 1.9 s⁻¹ and the kcat ([2]; listed as Ser38) is reported as 2.0 ± 1.9 s⁻¹.
For LRRASLG [Kemptide, reference compound], the kcat [2] was 19.0 ± 1.5 s⁻¹, the Km [2] was 42.6 ± 2.4 µM and the kcat/Km [2] was 470000 ± 50000 M⁻¹ s⁻¹.
SNADYLTRDWSILG… [EFPreIQ (S1535)] was tested, and the “binding to PKAc detected by ITC” value [1, 3] was “could not detect any heat signals indicative of binding” and the kcat [2] was 1.3 ± 0.2 s⁻¹.
For RGFLRSASLGRRASAHL [F1982A peptide], the “reduction in kcat/Km versus WT Ser1981 peptide” value [2] was roughly 26%.
In the case of RGFLRSASLGRAASFHL [R1979A peptide], the “binding to PKAc detected by ITC” value [1, 3] is reported as “no longer detect any interaction”, the “enzymatic activity of PKAc toward the peptide” value ([2]; ADP-Glo kinase assay) is reported as “very low” and the kcat [2] is reported as 1.1 ± 0.1 s⁻¹.
For RTLHDIGPEIRRAISGDL [S1718 peptide], the “binding to PKAc detected by ITC” value [1, 3] was “could not detect any heat signals indicative of binding” and the kcat [2] was 3.4 ± 1.3 s⁻¹.
